From paper PMC3145970, “Specific CLK Inhibitors from a Novel Chemotype for Regulation of Alternative Splicing” (Chemistry & Biology, 2011)
Like-named read-outs stand apart in the source and are kept apart here.

What was measured:
Assay in all cases: Thermal stability shift assay
Type in all cases: binding
[1] = target: CDK2 (Homo sapiens, UniProt P24941); settings: read-out: Tm shift CDK2
Procedure: (§1) Thermal denaturation experiments were carried out in an Mx3005p real-time PCR machine (Agilent) using a protein concentration of 2 μM and an inhibitor concentration of 10 μM. Samples were buffered in 10 mM HEPES (pH 7.5), 500 mM NaCl and a 1:1000 dilution of SyproOrange (Invitrogen).

[2] = target: T1, Erk1 (Homo sapiens, UniProt P27361); settings: read-out: Tm shift Erk1
T1 construct: purchased in-house (SGC Oxford thermal shift panel)
Procedure: as §1

[3] = target: CK1g3 (Homo sapiens, UniProt Q9Y6M4); settings: read-out: Tm shift CK1g3
Procedure: as §1

[4] = target: PIM1 (Homo sapiens, UniProt P11309); settings: read-out: Tm shift PIM1
Procedure: as §1

[5] = target: T2, MAP2K2 (Homo sapiens, UniProt P36507); settings: read-out: Tm shift MAP2K2
T2 construct: purchased in-house (SGC Oxford thermal shift panel)
Procedure: as §1, with “(Invitrogen). The assay and data evaluation were carried out as described ([Bullock et al., 2005])” for “(Invitrogen).”

[6] = target: T3, JNK1 (Homo sapiens, UniProt P45983); settings: read-out: Tm shift JNK1
T3 construct: purchased in-house (SGC Oxford thermal shift panel)
Procedure: as §1, with “(Invitrogen). The assay and data evaluation were carried out as described ([Bullock et al., 2005])” for “(Invitrogen).”

[7] = target: T4, JAK1 (Homo sapiens, UniProt P23458); settings: read-out: Tm shift JAK1
T4 construct: purchased in-house (SGC Oxford thermal shift panel)
Procedure: as §1, with “(Invitrogen). The assay and data evaluation were carried out as described ([Bullock et al., 2005])” for “(Invitrogen).”

[8] = target: T5, MST3 (Homo sapiens, UniProt Q9Y6E0); settings: read-out: Tm shift MST3
T5 construct: purchased in-house (SGC Oxford thermal shift panel)
Procedure: as §1, with “(Invitrogen). The assay and data evaluation were carried out as described ([Bullock et al., 2005])” for “(Invitrogen).”

[9] = target: T6, LOK (Homo sapiens, UniProt O94804); settings: read-out: Tm shift LOK
T6 construct: purchased in-house (SGC Oxford thermal shift panel)
Procedure: as §1, with “(Invitrogen). The assay and data evaluation were carried out as described ([Bullock et al., 2005])” for “(Invitrogen).”

[10] = target: PIM3 (Homo sapiens, UniProt Q86V86); settings: read-out: Tm shift PIM3
Procedure: as §1, with “(Invitrogen). The assay and data evaluation were carried out as described ([Bullock et al., 2005])” for “(Invitrogen).”

[11] = target: VRK2 (Homo sapiens, UniProt Q86Y07); settings: read-out: Tm shift VRK2
Procedure: as §1, with “(Invitrogen). The assay and data evaluation were carried out as described ([Bullock et al., 2005])” for “(Invitrogen).”

[12] = target: T7, DRAK2 (Homo sapiens, UniProt O94768); settings: read-out: Tm shift DRAK2
T7 construct: purchased in-house (SGC Oxford thermal shift panel)
T7 sequence (O94768 1-372): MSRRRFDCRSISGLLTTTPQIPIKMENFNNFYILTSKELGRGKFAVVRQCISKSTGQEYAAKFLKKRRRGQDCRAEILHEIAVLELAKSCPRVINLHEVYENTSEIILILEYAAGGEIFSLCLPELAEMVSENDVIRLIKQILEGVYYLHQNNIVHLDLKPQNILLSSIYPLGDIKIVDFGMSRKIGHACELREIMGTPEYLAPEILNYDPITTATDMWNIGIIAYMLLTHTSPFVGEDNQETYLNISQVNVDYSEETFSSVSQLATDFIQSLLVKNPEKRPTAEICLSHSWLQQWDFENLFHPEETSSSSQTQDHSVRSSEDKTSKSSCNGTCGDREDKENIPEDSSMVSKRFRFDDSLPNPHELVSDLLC
Procedure: as §1, with “(Invitrogen). The assay and data evaluation were carried out as described ([Bullock et al., 2005])” for “(Invitrogen).”

[13] = target: T8, CLK3 (Homo sapiens, UniProt P49761); settings: inhibitor 10 μM; read-out: Tm shift CLK3
T8 construct: purchased in-house (SGC Oxford thermal shift panel)
Procedure: as §1

[14] = target: T9, CLK4 (Homo sapiens, UniProt Q9HAZ1); settings: inhibitor 10 μM; read-out: Tm shift CLK4
T9 construct: purchased in-house (SGC Oxford thermal shift panel)
Procedure: as §1

[15] = target: T10, DYRK1A (Homo sapiens, UniProt Q13627); settings: inhibitor 10 μM; read-out: Tm shift DYRK1A
T10 construct: purchased in-house (SGC Oxford thermal shift panel)
Procedure: as §1

[16] = target: CLK2 (Homo sapiens, UniProt P49760); settings: inhibitor 10 μM; read-out: Tm shift CLK2
Procedure: as §1

[17] = target: T11, DYRK2 (Homo sapiens, UniProt Q92630); settings: inhibitor 10 μM; read-out: Tm shift DYRK2
T11 construct: purchased in-house (SGC Oxford thermal shift panel)
T11 sequence (Q92630 1-601): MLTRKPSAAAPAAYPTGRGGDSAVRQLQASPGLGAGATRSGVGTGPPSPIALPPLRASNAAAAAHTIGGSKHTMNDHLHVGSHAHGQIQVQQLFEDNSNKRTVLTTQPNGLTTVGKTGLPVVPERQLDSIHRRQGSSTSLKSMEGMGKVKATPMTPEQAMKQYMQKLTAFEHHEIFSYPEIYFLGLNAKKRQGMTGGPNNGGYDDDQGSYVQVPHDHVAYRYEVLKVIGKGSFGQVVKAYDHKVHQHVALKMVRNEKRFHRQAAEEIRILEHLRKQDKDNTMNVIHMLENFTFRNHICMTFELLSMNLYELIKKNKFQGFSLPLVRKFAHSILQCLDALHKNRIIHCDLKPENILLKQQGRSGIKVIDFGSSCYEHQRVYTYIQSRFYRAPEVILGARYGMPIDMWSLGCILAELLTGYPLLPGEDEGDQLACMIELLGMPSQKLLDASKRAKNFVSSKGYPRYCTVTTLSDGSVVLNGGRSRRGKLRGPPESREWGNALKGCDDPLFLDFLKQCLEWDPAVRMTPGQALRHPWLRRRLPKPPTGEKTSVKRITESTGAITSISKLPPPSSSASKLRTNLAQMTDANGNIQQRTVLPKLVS
Procedure: as §1

[18] = target: T12, CLK1 (Homo sapiens, UniProt P49759); settings: inhibitor 10 μM; read-out: Tm shift CLK1
T12 construct: the kinase domains of human CLK1 (residues: 148–484 (C terminus)); hexahistidine tag (TEV-cleavable) (cleaved yes); made in house; host or cells: E. coli BL21(DE3)
Procedure: as §1

[19] = target: CK1e (Homo sapiens, UniProt P49674); settings: inhibitor 10 μM; read-out: Tm shift CK1e
Procedure: as §1

Chain of PIM1 (P11309 whole entry): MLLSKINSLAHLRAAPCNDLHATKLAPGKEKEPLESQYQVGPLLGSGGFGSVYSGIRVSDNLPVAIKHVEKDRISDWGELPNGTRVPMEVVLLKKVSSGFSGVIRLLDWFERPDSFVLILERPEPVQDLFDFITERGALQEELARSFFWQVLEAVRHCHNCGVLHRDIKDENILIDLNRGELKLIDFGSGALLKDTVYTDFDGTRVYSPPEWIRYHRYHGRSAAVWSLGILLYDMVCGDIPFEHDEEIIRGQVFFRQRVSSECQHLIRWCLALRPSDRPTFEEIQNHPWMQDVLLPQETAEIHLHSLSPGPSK
T1 sequence (P27361 whole entry): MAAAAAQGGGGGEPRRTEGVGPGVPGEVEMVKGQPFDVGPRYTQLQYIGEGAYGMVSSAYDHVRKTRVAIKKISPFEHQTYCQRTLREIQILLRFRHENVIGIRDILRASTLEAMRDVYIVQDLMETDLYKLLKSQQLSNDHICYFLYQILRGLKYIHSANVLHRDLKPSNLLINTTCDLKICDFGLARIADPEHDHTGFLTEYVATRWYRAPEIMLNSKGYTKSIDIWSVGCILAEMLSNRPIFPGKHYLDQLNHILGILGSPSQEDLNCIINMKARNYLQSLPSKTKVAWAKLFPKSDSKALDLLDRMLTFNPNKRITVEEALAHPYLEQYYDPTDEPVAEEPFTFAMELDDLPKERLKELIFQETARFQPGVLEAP
Chain of CK1e (P49674 whole entry): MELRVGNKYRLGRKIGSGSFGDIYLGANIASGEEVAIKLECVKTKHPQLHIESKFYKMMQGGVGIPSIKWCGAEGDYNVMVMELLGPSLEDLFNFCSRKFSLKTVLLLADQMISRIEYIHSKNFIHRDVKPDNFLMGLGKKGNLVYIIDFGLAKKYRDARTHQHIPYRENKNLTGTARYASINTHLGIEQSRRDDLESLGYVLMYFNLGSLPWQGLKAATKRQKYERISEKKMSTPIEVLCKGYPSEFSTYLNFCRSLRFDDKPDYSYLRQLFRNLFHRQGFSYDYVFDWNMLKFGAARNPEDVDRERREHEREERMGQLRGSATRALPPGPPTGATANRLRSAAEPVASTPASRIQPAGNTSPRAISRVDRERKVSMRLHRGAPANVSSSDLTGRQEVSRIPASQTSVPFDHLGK
Chain of CK1g3 (Q9Y6M4 whole entry): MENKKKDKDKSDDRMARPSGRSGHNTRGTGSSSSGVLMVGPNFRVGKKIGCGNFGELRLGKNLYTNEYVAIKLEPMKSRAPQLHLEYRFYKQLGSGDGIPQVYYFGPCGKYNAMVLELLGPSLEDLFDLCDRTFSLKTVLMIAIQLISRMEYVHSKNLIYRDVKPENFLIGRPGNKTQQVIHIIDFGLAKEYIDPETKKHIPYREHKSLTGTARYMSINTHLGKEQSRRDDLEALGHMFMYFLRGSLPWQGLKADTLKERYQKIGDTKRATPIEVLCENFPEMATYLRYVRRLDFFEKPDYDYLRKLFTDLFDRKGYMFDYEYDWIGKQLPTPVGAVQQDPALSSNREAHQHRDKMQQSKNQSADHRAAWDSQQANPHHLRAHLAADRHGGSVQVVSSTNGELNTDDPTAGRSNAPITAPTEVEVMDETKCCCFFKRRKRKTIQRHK
Chain of CLK2 (P49760 whole entry): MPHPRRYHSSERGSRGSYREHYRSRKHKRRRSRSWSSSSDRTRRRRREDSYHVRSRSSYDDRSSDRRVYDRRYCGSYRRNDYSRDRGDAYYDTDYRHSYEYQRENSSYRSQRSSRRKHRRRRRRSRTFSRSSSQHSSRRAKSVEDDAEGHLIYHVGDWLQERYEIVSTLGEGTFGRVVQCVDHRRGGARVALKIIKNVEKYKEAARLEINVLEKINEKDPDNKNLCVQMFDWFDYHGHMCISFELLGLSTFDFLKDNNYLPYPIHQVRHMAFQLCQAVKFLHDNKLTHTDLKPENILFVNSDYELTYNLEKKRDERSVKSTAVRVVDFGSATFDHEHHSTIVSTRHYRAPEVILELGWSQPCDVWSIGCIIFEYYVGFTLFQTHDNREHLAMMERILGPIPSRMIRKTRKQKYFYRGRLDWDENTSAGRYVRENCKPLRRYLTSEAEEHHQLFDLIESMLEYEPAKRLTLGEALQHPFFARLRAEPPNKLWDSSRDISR
Chain of VRK2 (Q86Y07 whole entry): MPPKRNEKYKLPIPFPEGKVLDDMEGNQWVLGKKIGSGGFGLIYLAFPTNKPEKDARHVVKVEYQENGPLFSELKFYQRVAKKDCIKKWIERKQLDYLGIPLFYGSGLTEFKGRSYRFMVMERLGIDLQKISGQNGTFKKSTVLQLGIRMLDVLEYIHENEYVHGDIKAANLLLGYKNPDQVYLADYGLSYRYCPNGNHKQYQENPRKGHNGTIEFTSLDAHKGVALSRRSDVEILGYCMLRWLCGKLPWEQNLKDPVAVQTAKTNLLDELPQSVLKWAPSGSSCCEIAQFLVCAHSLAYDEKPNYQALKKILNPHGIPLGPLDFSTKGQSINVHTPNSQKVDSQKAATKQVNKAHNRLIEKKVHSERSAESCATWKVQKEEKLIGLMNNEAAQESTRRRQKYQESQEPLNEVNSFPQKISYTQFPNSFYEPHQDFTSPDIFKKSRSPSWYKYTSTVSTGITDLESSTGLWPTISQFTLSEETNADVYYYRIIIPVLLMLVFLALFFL
T8 sequence (P49761 whole entry): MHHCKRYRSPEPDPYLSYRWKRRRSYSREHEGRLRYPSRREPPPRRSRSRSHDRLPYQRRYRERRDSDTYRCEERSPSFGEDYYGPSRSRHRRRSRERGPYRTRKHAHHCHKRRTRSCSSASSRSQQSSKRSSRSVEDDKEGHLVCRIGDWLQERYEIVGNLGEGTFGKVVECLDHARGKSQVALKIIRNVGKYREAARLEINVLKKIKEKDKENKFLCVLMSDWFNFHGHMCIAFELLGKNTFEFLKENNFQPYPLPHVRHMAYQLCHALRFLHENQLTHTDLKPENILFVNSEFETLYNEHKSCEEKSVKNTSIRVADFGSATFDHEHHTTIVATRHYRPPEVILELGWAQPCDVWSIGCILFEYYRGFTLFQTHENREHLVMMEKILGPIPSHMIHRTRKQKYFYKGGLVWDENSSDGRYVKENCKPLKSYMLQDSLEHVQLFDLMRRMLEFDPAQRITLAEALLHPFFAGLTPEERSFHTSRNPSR
T5 sequence (Q9Y6E0 whole entry): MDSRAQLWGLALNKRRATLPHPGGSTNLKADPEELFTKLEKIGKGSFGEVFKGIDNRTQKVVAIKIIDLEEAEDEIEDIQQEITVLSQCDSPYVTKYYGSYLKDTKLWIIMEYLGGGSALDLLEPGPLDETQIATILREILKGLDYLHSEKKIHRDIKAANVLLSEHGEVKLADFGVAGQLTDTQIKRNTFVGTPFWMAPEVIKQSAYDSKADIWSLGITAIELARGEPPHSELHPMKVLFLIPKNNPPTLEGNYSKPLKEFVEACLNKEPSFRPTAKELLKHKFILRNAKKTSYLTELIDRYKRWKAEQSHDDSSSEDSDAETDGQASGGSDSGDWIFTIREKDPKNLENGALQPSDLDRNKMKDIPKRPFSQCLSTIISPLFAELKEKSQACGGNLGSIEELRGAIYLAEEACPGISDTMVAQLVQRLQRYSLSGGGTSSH
T4 sequence (P23458 whole entry): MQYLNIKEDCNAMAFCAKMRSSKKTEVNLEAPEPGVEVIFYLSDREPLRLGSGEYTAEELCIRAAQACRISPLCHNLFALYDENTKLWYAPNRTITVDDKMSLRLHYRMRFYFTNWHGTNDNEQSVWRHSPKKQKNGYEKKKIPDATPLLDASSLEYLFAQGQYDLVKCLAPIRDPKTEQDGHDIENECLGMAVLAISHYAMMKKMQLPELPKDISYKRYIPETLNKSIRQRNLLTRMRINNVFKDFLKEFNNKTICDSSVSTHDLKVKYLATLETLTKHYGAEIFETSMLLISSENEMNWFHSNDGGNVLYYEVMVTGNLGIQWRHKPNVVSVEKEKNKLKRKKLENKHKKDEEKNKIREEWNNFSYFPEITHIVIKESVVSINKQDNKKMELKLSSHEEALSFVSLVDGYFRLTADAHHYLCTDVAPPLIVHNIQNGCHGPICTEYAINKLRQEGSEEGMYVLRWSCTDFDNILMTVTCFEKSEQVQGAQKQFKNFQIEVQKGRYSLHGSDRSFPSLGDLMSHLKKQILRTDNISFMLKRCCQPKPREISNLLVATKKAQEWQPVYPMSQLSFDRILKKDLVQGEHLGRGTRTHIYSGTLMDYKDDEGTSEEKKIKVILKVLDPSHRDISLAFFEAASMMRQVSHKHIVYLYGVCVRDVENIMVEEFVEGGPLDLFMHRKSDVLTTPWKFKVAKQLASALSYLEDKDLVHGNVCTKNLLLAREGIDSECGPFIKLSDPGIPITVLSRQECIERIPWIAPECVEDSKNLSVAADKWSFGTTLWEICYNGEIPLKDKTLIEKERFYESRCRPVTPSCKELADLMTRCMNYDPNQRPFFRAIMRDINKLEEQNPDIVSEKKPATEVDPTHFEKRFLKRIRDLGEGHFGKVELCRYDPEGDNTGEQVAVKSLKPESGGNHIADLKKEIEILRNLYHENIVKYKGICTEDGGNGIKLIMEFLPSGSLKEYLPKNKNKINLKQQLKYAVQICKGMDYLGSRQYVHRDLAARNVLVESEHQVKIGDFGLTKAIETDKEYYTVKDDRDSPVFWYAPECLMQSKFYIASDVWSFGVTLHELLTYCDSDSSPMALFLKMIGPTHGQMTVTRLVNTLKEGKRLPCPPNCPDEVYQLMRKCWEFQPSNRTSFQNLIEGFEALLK

SMILES | ΔTm at 10 µM [1] | ΔTm at 10 µM [2] | ΔTm at 10 µM ([1]; inhibitor 10 μM) | ΔTm at 10 µM [13] | ΔTm at 10 µM [14] | ΔTm at 10 µM [15] | ΔTm at 10 µM [16] | ΔTm at 10 µM [17] | ΔTm at 10 µM ([3]; inhibitor 10 μM) | ΔTm at 10 µM [18] | ΔTm at 10 µM ([4]; inhibitor 10 μM) | ΔTm at 10 µM [19] | ΔTm at 10 µM ([5]; inhibitor 10 μM) | ΔTm at 10 µM ([6]; inhibitor 10 μM) | ΔTm at 10 µM ([7]; inhibitor 10 μM) | ΔTm at 10 µM ([8]; inhibitor 10 μM) | ΔTm at 10 µM ([9]; inhibitor 10 μM) | ΔTm at 10 µM ([10]; inhibitor 10 μM) | ΔTm at 10 µM ([11]; inhibitor 10 μM) | ΔTm at 10 µM ([12]; inhibitor 10 μM) | also measured
CCOC(=O)c1c(/C(C#N)=C\N)c2ccc(Cl)c(Cl)c2n1C [KH-CB19, (E)-Ethyl 3-(2-Amino-1-Cyanovinyl)-6,7-Dichloro-1-Methyl-1H-Indole-2-Carboxylate] | 0.2 °C | -0.3 °C | – | – | – | – | – | – | – | – | – | – | – | – | – | – | – | – | – | – | ΔTm at 10 µM [3]: 0.1 °C; ΔTm at 10 µM [4]: 2.9 °C; ΔTm at 10 µM [5]: 0.1 °C; ΔTm at 10 µM [6]: 0.9 °C; ΔTm at 10 µM [7]: 0.7 °C; ΔTm at 10 µM [8]: 0.2 °C; ΔTm at 10 µM [9]: -0.8 °C; ΔTm at 10 µM [10]: 3.1 °C; ΔTm at 10 µM [11]: -0.1 °C; ΔTm at 10 µM [12]: 1.7 °C
CCOC(=O)c1c(C(C#N)=CN)c2ccc(Cl)c(Cl)c2n1C (mixture of isomers) [KH-CB20, (E/Z)-Ethyl 3-(2-Amino-1-Cyanovinyl)-6,7-Dichloro-1-Methyl-1H-Indole-2-Carboxylate] | 0.2 °C | 0.1 °C | – | – | – | – | – | – | – | – | – | – | – | – | – | – | – | – | – | – | ΔTm at 10 µM [3]: 0.3 °C; ΔTm at 10 µM [4]: 3 °C; ΔTm at 10 µM [5]: 0 °C; ΔTm at 10 µM [6]: 0.2 °C; ΔTm at 10 µM [7]: 1 °C; ΔTm at 10 µM [8]: -0.1 °C; ΔTm at 10 µM [9]: 3 °C; ΔTm at 10 µM [10]: 2.8 °C; ΔTm at 10 µM [11]: 0.1 °C; ΔTm at 10 µM [12]: 1.5 °C
NC1=NC(=O)/C(=C2\CCNC(=O)c3[nH]c(Br)cc32)N1 [Hymenialdisine, hymenialdisine, reference compound] | – | – | 1.5 °C | 7.2 °C | 7 °C | 4.4 °C | 4.4 °C | 0.8 °C | 3.5 °C | 7.8 °C | 0.6 °C | 4.8 °C | 2 °C | -0.5 °C | 0.3 °C | 1 °C | 4.2 °C | 3.8 °C | 0.8 °C | 13 °C | –
CCOC(=O)c1c(C(C#N)=CN(C)C)c2ccc(Cl)c(Cl)c2n1C (mixture of isomers) [compound 2, (E/Z)-Ethyl 6,7-Dichloro-3-[1-Cyano-2-(Dimethylamino)Vinyl]-1-Methyl-1H-Indole-2-Carboxylate] | – | – | -0.1 °C | 1.7 °C | 4.1 °C | 0.6 °C | 3 °C | 0.7 °C | 0.5 °C | 5.6 °C | 2.5 °C | 0.3 °C | -0.4 °C | 0.1 °C | 0.2 °C | -1.1 °C | -1.1 °C | 3.2 °C | 0.2 °C | 0 °C | ΔTm at 10 µM ([2]; inhibitor 10 μM): 0.1 °C
Cn1c2c(Cl)c(Cl)ccc2c2c(C#N)c[nH]c(=O)c21 [compound 3, 7,8-Dichloro-9-Methyl-1-Oxo-2,9-Dihydro-1H-Pyrido[3,4-b]Indole-4-Carbonitrile] | – | – | 0.4 °C | 7.9 °C | 9.6 °C | 5.1 °C | 6.3 °C | 2.1 °C | 0 °C | 10.9 °C | 3.4 °C | 0.9 °C | 0.1 °C | 0.2 °C | 0.9 °C | 0.1 °C | -0.7 °C | 4.2 °C | 0.1 °C | 0.9 °C | ΔTm at 10 µM ([2]; inhibitor 10 μM): -0.5 °C
